The source of these data is article PMC3656252 (The Journal of Biological Chemistry, 2013).

The test system of data set [1] is DP9. Put plainly: 1.7 milliunits of recombinant DP9 in assay buffer: 50 mM Tris, 100 mM NaCl, pH 8.0. The note with it: human, 37 °C, up to 24 h.
For data set [2], the system named is DP8. Description: 1.7 milliunits of recombinant DP8 in assay buffer: 50 mM Tris, 100 mM NaCl, pH 8.0. The note with it: human, 37 °C, up to 24 h.
Data set [3] has as its system DP8. Particulars: cited from earlier work. From the text: (§1) In vitro, both DP8 and DP9 cleave the well known DP4 substrates neuropeptide Y(1–36), glucagon-like peptide-1(7–36), glucagon-like peptide-2(1–33), and peptide YY(1–36) ([18], [19]). […] However, as DP8 and DP9 are intracellular enzymes, it is unlikely that these secreted substrates will be of physiological relevance in vivo. Clues for their in vivo roles come from studies blocking DP ...

Data set [4] has as its system DP9. Particulars: cited from earlier work.
Source text: as §1

No end group written: not given here.

As for AEVKKPAAAAAPGTAEKLSP, the not cleaved entry in data set [1] and in data set [2] was “nc (not cleaved) after 24 h” throughout.

For the molecule APAEILNGKEISAQIR, the cleaved bond result in data set [1] and in data set [2] was “P-A” each time.

As to APGQLALFSVSDKTGLVEFAR, the cleaved bond entry in data set [1] and in data set [2] was “P-G” each time.

For the molecule APKFPDSVEELRAAG, the cleaved bond result in data set [1] and in data set [2] was “P-K” in each case.

APLDLDKYVEIARLCK: the cleaved bond result in data set [1] and in data set [2] was “P-L” in each case.

APSVPAAEPEYPKGIR: the cleaved bond result in data set [1] was “P-S, 1 h”; in data set [2], “P-S, 1 h”.

Regarding APVLSKDSADIESILALNPR, the cleaved bond entry in data set [1] and in data set [2] was “P-V” throughout.

As for ASGANFEYIIAEKRGK, the not cleaved result in data set [1] and in data set [2] was “nc (not cleaved) after 24 h” in each case.

Turning to ATAKGIAIGIDLGTTYSCVG, the not cleaved result in data set [1] and in data set [2] was “nc (not cleaved) after 24 h” each time.

Regarding DDEVDVDGTVEEDLGKSR, the not cleaved result in data set [1] and in data set [2] was “nc (not cleaved) after 24 h” in each case.

Regarding EPAVYFKEQFLDGDGWTSR, the cleaved bond entry in data set [1] is given as “P-A, 1 h”; in data set [2], “P-A, 1 h”.

With PPKKGGDGIKPPPIIGR, the cleaved bond entry in data set [1] and in data set [2] was “P-K” in each case.

For SPADLPKSWDWRNVDG, the cleaved bond entry in data set [1] and in data set [2] was “P-A” in each case.

Consider VSKPTLKEVVIVSATR, for which the not cleaved result in data set [1] and in data set [2] was “nc (not cleaved) after 24 h” in each case.

In the case of “glucagon-like peptide-1(7–36): well known DP4 substrate (HAEGTFTSDVSSYLEGQAAKEFIAWLVKGR; ends and bridges not checked; UniProt P01275 98-127, looked up)”, the “Cleavage by DP8 in vitro” value in data set [3] is listed as “cleave”. In data set [4], the “Cleavage by DP9 in vitro” value is “cleave”.

“glucagon-like peptide-2(1–33): well known DP4 substrate (HADGSFSDEMNTILDNLAARDFINWLIQTKITD; Glucagon-like peptide 2; UniProt P01275 146-178, looked up)”: the “Cleavage by DP8 in vitro” value in data set [3] is reported as “cleave”. For the same molecule, in data set [4], the “Cleavage by DP9 in vitro” value was “cleave”.

On to “interferon-γ-inducible protein: chemokine, known DP4 substrate”, for which the “DP8 cleavage of chemokines in vitro” value in data set [3] is “cleavage”.

Regarding “neuropeptide Y(1–36): well known DP4 substrate”, the “Cleavage by DP8 in vitro” value in data set [3] is listed as “cleave”. Also, the “Cleavage by DP9 in vitro” value in data set [4] was “cleave”.

As for “peptide YY(1–36): well known DP4 substrate”, the “Cleavage by DP8 in vitro” value in data set [3] is given as “cleave”. The “Cleavage by DP9 in vitro” value in data set [4] is “cleave”.

B1: interferon-inducible T cell α-chemoattractant: chemokine, known DP4 substrate (protein, UniProt O14625 22-94, looked up)
C-X-C motif chemokine 11: FPMFKRGRCLCIGPGVKAVKVADIEKASIMYPSNNCDKIEVIITLKENKGQRCLNPKSKQARLIIKKVERKNF
Regarding B1, the “DP8 cleavage of chemokines in vitro” value in data set [3] is listed as “cleavage”.
